For experiment [1], the target named is T1, XT-I (Homo sapiens, UniProt Q86Y38).
T1 sequence (Q86Y38 260-959 limits assumed): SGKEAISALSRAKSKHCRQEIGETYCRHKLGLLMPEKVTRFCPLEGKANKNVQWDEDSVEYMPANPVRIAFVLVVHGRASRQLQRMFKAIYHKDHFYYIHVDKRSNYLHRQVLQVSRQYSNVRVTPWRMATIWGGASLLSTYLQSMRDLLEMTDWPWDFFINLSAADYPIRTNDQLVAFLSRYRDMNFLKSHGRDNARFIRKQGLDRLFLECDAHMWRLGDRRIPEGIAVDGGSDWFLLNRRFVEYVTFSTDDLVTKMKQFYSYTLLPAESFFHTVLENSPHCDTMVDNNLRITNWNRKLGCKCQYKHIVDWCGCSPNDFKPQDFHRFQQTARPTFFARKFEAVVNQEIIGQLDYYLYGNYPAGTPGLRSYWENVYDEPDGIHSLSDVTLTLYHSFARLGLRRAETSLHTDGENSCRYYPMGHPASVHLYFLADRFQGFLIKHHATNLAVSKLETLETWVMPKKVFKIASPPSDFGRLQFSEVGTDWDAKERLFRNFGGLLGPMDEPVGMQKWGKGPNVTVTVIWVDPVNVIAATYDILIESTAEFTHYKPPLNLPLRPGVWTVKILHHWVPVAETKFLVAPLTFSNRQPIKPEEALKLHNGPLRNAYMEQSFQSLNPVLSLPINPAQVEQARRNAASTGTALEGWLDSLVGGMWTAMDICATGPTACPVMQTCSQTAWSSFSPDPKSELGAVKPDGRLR
Nature of the experiment: Enzyme and inhibition kinetics (mode of inhibition), UPLC/ESI-MS/MS XT-I assay. Format: biochemical. The note with it: inhibitor at IC50 concentration; for Vmax: Figure 2, modified acceptor peptide varied, 15 μM UDP-D-xylose, Michaelis-Menten; for Vmax [AU]: Table S2, Michaelis-Menten plot, nonlinear regression. The text has this:
(§1) The measurement of relative XT-I activity among different samples is based on the XT-catalyzed incorporation of xylose from UDP-D-xylose on a modified bikunin-derived peptide after a fixed reaction time. The assay was originally developed for the determination of XT activity in human- or cell-culture-derived samples [13] by ultra-performance liquid chromatography/electrospray ionization tandem mass spectrometry (UPLC/ESI-MS/MS). The UPLC/ESI-MS/MS XT assay was recently modified toward a XT-I selective activity determination in human serum and cell culture samples (unpublished data). The relative intensities of the xylosylated peptide species abundance obtained with the respective m/z ratio were directly proportional to the relative XT-I activity of the sample. The XT-I activity determined is expressed in arbitrary units and normalized to the total protein content per 1 mL sample volume in cell culture approaches. A calibrator probe with a fixed amount of recombinant XT-I enzyme was included in every UPLC-MS/MS XT-I assay for assay comparability across multiple runs. The assay reaction mixture (50 μL) contained 50% (v/v) of the respective XT-I enzyme solution and 50% (v/v) reaction buffer. The final XT-I assay contained 25 mM MES buffer (pH 6.5), 25 mM KF buffer, 5 mM MnCl2, 5 mM MgCl2, 7.0 μM modified acceptor peptide and 30 μM UDP-D-xylose. The sample preparation for UPLC/ESI-MS/MS was performed according to [13]. In brief, after sample incubation at 37 °C for 24 h, the reaction was stopped by heating at 99 °C for 10 min. After centrifugation (10,000× g, 10 min) the supernatant was diluted fivefold with UPLC water for analysis. All cell-based XT-I assays were carried out in three biological and three technical replicates per donor-derived primary cell culture, while the XT-I activity determination for screening or kinetic purposes was carried out at least in technical duplicates.
The mode of inhibition (MOI) study was performed by evaluating the inhibitors’ impact on the enzyme parameters’ Michaelis constant Km and the maximum activity Vmax. In order to determine the enzyme and inhibition kinetics, XT-I activity determination of the recombinant XT-I protein solution with and without inhibitor supplementation was carried out in the presence of different acceptor peptide concentrations ranging from 1 to 30 μM. […] The Km and Vmax were determined with the Michaelis–Menten equation and nonlinear regression analysis, while the slope and Y-intersection values were determined by a Lineweaver–Burk plot and simple linear regression using GraphPad Prism 8.0 (GraphPad Software, La Jolla, United States) software.

In experiment [2] the target is T1, XT-I. Nature of the experiment: Cellular (extra- and intracellular) XT-I activity of NHDFs by UPLC-ESI-MS/MS XT-I assay. Format: cell-based. The note with it: for extracellular XT-I activity relative to DMSO control / intracellular XT activity compared to DMSO control: then inhibitor-free media 48 h (96 h).
From the text: as §1
A former established cell culture model was utilized to investigate the effect of putative XT-I inhibitors on NHDFs. The inhibition studies were carried out with final inhibitor concentrations of 0.5, 1.0, 2.0 or 4.0 μM diluted in fully supplemented DMEM. In brief, unless otherwise stated, NHDFs were cultivated with a low density of 50 cells per mm^2 on a hard tissue culture substrate (100 × 20 mm dish) in fully supplemented DMEM with or without additional TGF-β1 (5 μg/L) for 24 h, promoting their transdifferentiation into proto-myofibroblasts. Thereafter, cells were treated with celastrol or amphotericin B in the presence or absence of TGF-β1 (5 μg/L) for an additional 48 h. Negative controls treated with solvent only were included for every sampling time. The final DMSO content of 0.04% (v/v) was kept constant in all inhibition experiments.
The cell culture supernatant was collected to analyze the extracellular XT-I activity, whereas the same cell culture monolayer was lysed using a fixed amount of 0.75 mL Nonidet P-40 (NP-40)-buffer (50 mM TRIS, 150 mM NaCl, 1% NP-40, pH 7.8) for the analysis of intracellular XT-I activities. After sample centrifugation (10,000× g, 10 min, 4 °C), the supernatant contained the intracellular XT-I protein. The lysates were also used for the BCA assay. The cellular XT-I activities were measured 48 h after inhibitor treatment (48 h) or an additional 48 h after inhibitor removal (96 h).

Setting [3] is: 2.0 μM with TGF-β1 (5 μg/L) 48 h.
[4] abbreviates: 1.0 μM with TGF-β1 (5 μg/L) 48 h.

The source of these data is paper PMC7589200, “Identification of Putative Non-Substrate-Based XT-I Inhibitors by Natural Product Library Screening” (Biomolecules, 2020).

As to `C[C@@H]1[C@H](O)[C@@H](C)/C=C/C=C/C=C/C=C/C=C/C=C/C=C/[C@H](O[C@@H]2O[C@H](C)[C@@H](O)[C@H](N)[C@@H]2O)C[C@@H]2O[C@](O)(C[C@@H](O)C[C@@H](O)[C@H](O)CC[C@@H](O)C[C@@H](O)CC(=O)O[C@H]1C)C[C@H](O)[C@H]2C(=O)O` [Compound 17, Amphotericin B], on XT-I [1], the Vmax is 10 ± 0.4 ·10^3 AU, the “Vmax [AU]” value is on record as 10031 ± 388 AU and the “mode of inhibition (MOI) regarding the acceptor peptide” value is reported as “uncompetitive”. At XT-I [2] (setting [3]), the “extracellular XT-I activity relative to DMSO control” value is recorded as 0.6 ± 0.03 fold and the “intracellular XT activity compared to DMSO control” value is “did not result in any detectable changes”.

On to `CC1=C(O)C(=O)C=C2C1=CC=C1[C@@]2(C)CC[C@@]2(C)[C@@H]3C[C@](C)(C(=O)O)CC[C@]3(C)CC[C@]12C` [Compound 68, Celastrol], for which, on XT-I [1], the Vmax is listed as 12 ± 0.6 ·10^3 AU, the “Vmax [AU]” value stood at 11826 ± 551 AU and the “mode of inhibition (MOI) regarding the acceptor peptide” value is listed as “competitive”. Besides, the “extracellular XT-I activity relative to untreated cells” value on XT-I [2] (0.5 μM, 48 h, inhibitor still present in supernatant (Figure S3)) turned out to be 0.8 ± 0.07 fold. For the same compound, on XT-I [2] (setting [4]), the “extracellular XT-I activity relative to DMSO control” value amounted to 0.9 ± 0.06 fold and the “intracellular XT activity compared to DMSO control” value is reported as “did not result in any detectable changes”. Also, the “intracellular XT activity” value on XT-I [2] (inhibitor present 48 h (Figure S3 setup, 0.5 μM)) is recorded as “No intracellular XT activity changes were observed”.
